# Experimental data from US7893299B2, “Interleukin-1 and tumor necrosis factor-αmodulators; syntheses of such modulators and methods of using such modulators” (Nereus Pharmaceuticals, Inc., priority 2005, dated 2011).
# Where two headings read alike, the source gives them in different places.
# Columns and labels:
# [1] = system: HPBMC; assay: HPBMC cell viability, Resazurin; format: cell-based, Human; conditions: HPBMC, 24 hr drug exposure, read-out: EC50 Inhibition of cell growth
# Procedure: (§1) Eighty μl of 3.1×10^5/ml Human Peripheral Blood Mononuclear cells (HPBMC) were seeded in Costar 3904 96-well plate in LGM-3 medium and cultured for 12 hr at 37° C., 5% CO2 and 95% humidified air. 10 μl of 8-point half-log serial dilutions of LT-1-85, CC-3-19, CC-3-13P, formula (IIB-A1) and CC-3-22 prepared in LGM-3 medium was added to the cells and incubated for 1 hr. Subsequently, 10 μl of 500 ng/ml lipopolysaccharide (LPS) diluted in LGM-3 medium from 1 mg/ml stock solution was added to the cells and incubation proceeded for another 4 hr at 37° C., 5% CO2 and 95% humidified air. SB203580, a known p38 MAP kinase inhibitor and DMSO were used as positive and negative controls, respectively. After 4 hr stimulation with LPS, the level of TNF-α from each sample was analyzed by using the human TNF-α cytoset ELISA kit. EC50 values (the drug concentration at which 50% of the maximal observed TNF-α production is inhibited) were determined using a standard sigmoidal dose response curve fitting algorithm (Prism 2.0, GraphPad Software Inc). A duplicate set of cell plates were assayed for cell viability using the Resazurin dye after the cells were incubated with test compounds for 24 hr. The fluorescence of the reduction product of Resazurin was measured using a Fusion microplate fluorometer (Packard Bioscience) with λex=535 nm and λem=590 nm filters. EC50 values (the drug concentration at which 50% of the maximal observed growth inhibition is established) were determined using a standard sigmoidal dose response curve fitting algorithm (Prism 2.0, GraphPad Software Inc).
# [2] = system: PC-3 cells; assay: cell growth inhibition, PC-3, Resazurin, 1% FBS; format: cell-based, Human; conditions: 48 hr of drug exposure
# Procedure: (§2) Human prostate adenocarcinoma (PC-3; CRL-1435), multiple myeloma (RPMI 8226; CCL-155) and embryonic kidney (HEK-293; CRL-1573) cells were all purchased from ATCC and maintained in appropriate culture media. The cells were cultured in an incubator at 37° C. in 5% CO2 and 95% humidified air.
# (§3) For cell growth inhibition assays, PC-3 and HEK-293 cells were seeded at 5×10^3 and 1.5×10^3 cells/well respectively in 90 μl media containing 1% (v/v) FBS into 96 well (Corning; 3904) black-walled, clear-bottom tissue culture plates and the plates were incubated overnight to allow cells to establish and enter log phase growth. RPMI 8226 cells were seeded at 2×10^4 cells/well respectively in 90 μl media containing 1% (v/v) FBS into 96 well plates on the day of the assay. 4 mg/ml stock solutions of the compounds were prepared in 100% DMSO and stored at −20° C. The compounds were serially diluted and added in triplicate to the test wells. LT-1-85 was tested at concentrations ranging from 27 μM to 8.6 nM. Concentrations ranging from 30 μM to 9.7 nM were tested for CC-3-13P. Formula (IIB-A1) was tested at concentrations ranging from 26 μM to 8.4 nM. The plates were returned to the incubator for 48 hours. The final concentration of DMSO was 0.25% in all samples.
# (§4) Following 48 hours of drug exposure, 10 μl of 0.2 mg/ml Resazurin in Mg2+, Ca2+ free phosphate buffered saline was added to each well and the plates were returned to the incubator for 3-6 hours. Since living cells metabolize Resazurin, the fluorescence of the reduction product of Resazurin was measured using a Fusion microplate fluorometer (Packard Bioscience) with λex=535 nm and λem=590 nm filters. Resazurin dye in medium without cells was used to determine the background, which was subtracted from the data for all experimental wells. […] Where the maximum inhibition of cell growth was less than 50%, an EC50 value was not determined. The data in Table 25 summarize the growth inhibitory effects of LT-1-85, CC-3-13P and formula (IIB-A1) against HEK-293, PC-3 and RPMI 8226 cells. The EC50 values indicate that LT-1-85 and CC-3-13P are cytotoxic against HEK-293, PC-3 and RPMI 8226 cells. Formula (IIB-A1) is cytotoxic against RPMI 8226 cells.
# [3] = system: TNF-α production in HPBMC; assay: TNF-α levels in LPS-stimulated Human Peripheral Blood Mononuclear cells (ELISA); format: cell-based; conditions: 5 hr drug exposure, read-out: EC50 Inhibition of TNF-α production
# Procedure: as §1
# [4] = system: RPMI 8226 cells; assay: cell growth inhibition, RPMI 8226, Resazurin, 1% FBS; format: cell-based, Human; conditions: 48 hr of drug exposure
# Procedure: as §2, §3, §4
# [5] = system: TNF-α production in THP-1 cells; assay: LPS-induced TNF-α production in differentiated THP-1 cells (FLISA); format: cell-based; conditions: Homo sapiens, read-out: Percent TNF-α Inhibition
# Procedure: (§5) The ability to inhibit TNF-α production was analyzed in THP-1 cells, a human acute monocytic leukemia cell line that is widely used to assess monocyte functions. In order to induce maturation, THP-1 cells were plated at 1×10^6 cells/ml and pretreated with 5 nM PMA for two days. Differentiated THP-1 cells were pretreated with various concentrations of TTL3 or its analogs for 1 hour, followed by a 4 hour incubation with 1 μg of LPS (Sigma, St. Louse, Mo.). The p38 inhibitor (SB 203580; Sigma, St. Louis, Mo.) was used as a positive control. Supernatants were collected and stored at −80° C. until assayed for TNF-α activity. A resazurin assay was performed for each analog to evaluate the effects on cell metabolism and viability.
# To detect the presence of human TNFα, fluorescent linked immunosorbent assay or FLISA was developed and optimized. 100 μl of beads (6 μm, Spherotech) coated with goat anti-mouse IgG (1 mg/ml, R and D Systems) were mixed with 4 μl of biotin-anti-hTNFα mouse IgG (0.1 mg/ml, R and D Systems) and 2 μl of FMAT Blue-streptavidin (0.1 mg/ml, Applied Biosystems). 50 μl of the mixtures was combined with 50 μl of the supernatant isolated from treated THP-1 cells and added to the black wall FLISA plates (Applied Biosystems) and incubated overnight. The plates were scanned at factory set PMT setting, and the values were plotted and analyzed by Applied Biosystems software.
# [6] = system: THP-1 cells; assay: resazurin viability assay in THP-1 cells; format: cell-based, human; conditions: * mild, ** marked reduction in viability, in % (unit assumed)
# Procedure: as §5
# A preparation of the dye resazurin, commercially-available as alamarBlue™ (Biosource International Inc., 820 Flynn Road, Camarillo, Calif.), was used for the cytotoxicity assays described herein. The assays and experiments described herein were conducted in substantially the same manner as described in the scientific literature, for example, in Magnani, E. and Bettini, E., “Resazurin detection of energy metabolism changes in serum-starved PC12 cells and of neuroprotective agent effect,” Brain Res Protoc., 2000 July; 5(3):266-72 and in Nociari M. M., Shalev A., Benias P., and Russo C. J, “A novel one-step, highly sensitive fluorometric assay to evaluate cell-mediated cytotoxicity,” Immunol. Methods 213, 157-167 (1998), see also U.S. Pat. No. 5,501,959, entitled “Antibiotic and Cytotoxic Drug Susceptibility Assays using Resazurin and Poising Agents,” the entire specification of which is incorporated herein by reference.
EC50 [2],"EC50 ([2]; Homo sapiens, PC-3, 48 h)",EC50 [3],"EC50 ([3]; Homo sapiens, PBMC, 5 h)",Structure (SMILES),EC50 [1],"EC50 ([1]; Homo sapiens, 24 h)",EC50 [4],"EC50 ([4]; Homo sapiens, RPMI-8226, 48 h)",inhibition at 0.1 µg/mL ([5]; 100 ng/ml),inhibition at 1 µg/mL ([5]; 1 ug/ml),inhibition at 10 µg/mL ([5]; 10 ug/ml),Effect on Cell Viability ([6]; 100 ng/ml),Effect on Cell Viability ([6]; 1 ug/ml),Effect on Cell Viability ([6]; 10 ug/ml)
4000 nM,3700 nM,400 nM,500 nM,C=C[C@@]1(C)CCC=C2[C@H]1CC[C@@H]1[C@](C)(CNCCN)CCC[C@@]21C [CC-3-13P],700 nM,900 nM,2700 nM,2300 nM,–,–,–,–,–,–
–,–,–,3300 nM,C=C[C@@]1(C)CCC=C2[C@H]1CC[C@@H]1[C@](C)(CC(=O)CN3CCNCC3)CCC[C@@]21C [CC-3-19],–,3000 nM,–,–,–,–,–,–,–,–
–,–,–,7400 nM,C=C[C@@]1(C)CCC=C2[C@H]1CC[C@@H]1[C@](C)(COC(=O)CN3CCOCC3)CCC[C@@]21C [CC-3-22],–,24000 nM,–,–,0%,0%,20%,100,100,100
–,–,–,–,C=C[C@@]1(C)CCC=C2[C@H]1CC[C@@H]1[C@](C)(C(=O)O)CCC[C@@]21C [TTL1],–,–,–,–,–,–,–,100,100,–
